Assay results published in patent US8263605B2, “Modulators of muscarinic receptors” (Vertex Pharmaceutical Incorporated, priority 2006, dated 2012).

Assays:
M1 muscarinic receptor = target: T1, M1 muscarinic receptor (Homo sapiens, UniProt P11229); assay: Functional mobilization of intracellular calcium (FLIPR), M1-CHO cells; type: cell-based; conditions: for Emax: 100% efficacy is the maximum response obtained with the Carbachol control; for M1 Activity: CHO cells expressing M1, calcium mobilization
T1 construct: expressed in transfected cells; host or cells: CHO (M1-CHO)
T1 sequence (P11229 1-460): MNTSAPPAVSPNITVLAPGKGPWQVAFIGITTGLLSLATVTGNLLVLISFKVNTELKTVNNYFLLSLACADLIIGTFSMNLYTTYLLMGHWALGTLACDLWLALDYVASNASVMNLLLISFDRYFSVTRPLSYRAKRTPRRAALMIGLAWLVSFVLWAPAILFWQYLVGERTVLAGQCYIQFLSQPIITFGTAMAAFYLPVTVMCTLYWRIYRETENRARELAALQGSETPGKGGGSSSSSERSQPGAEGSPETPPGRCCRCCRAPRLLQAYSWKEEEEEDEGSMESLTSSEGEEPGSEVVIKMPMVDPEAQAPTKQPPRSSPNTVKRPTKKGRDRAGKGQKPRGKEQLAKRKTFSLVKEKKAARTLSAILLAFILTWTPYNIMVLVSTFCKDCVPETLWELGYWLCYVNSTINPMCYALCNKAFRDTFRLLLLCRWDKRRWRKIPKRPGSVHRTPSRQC
In short: (§1)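 Recombinant CHO cells loaded with Fluo-3 AM or Calcium 3 dye; fluorescence recorded 60 s on FLIPR in pH 7.4 buffer with 1 mM probenecid, 0.5% DMSO. Agonist mode: compound alone; antagonist mode: 15 min preincubation (or co-application) then carbachol at EC80. Efficacy relative to maximal carbachol response.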

M4 muscarinic receptor = target: T2, M4 muscarinic receptor (Homo sapiens, UniProt P08173); assay: Functional mobilization of intracellular calcium (FLIPR), M4-CHO cells; type: cell-based; conditions: for Emax: 100% efficacy is the maximum response obtained with the Carbachol control; for M4 Activity: CHO cells expressing M4, calcium mobilization
T2 construct: expressed in transfected cells; host or cells: CHO (M4-CHO)
T2 sequence (P08173 1-479): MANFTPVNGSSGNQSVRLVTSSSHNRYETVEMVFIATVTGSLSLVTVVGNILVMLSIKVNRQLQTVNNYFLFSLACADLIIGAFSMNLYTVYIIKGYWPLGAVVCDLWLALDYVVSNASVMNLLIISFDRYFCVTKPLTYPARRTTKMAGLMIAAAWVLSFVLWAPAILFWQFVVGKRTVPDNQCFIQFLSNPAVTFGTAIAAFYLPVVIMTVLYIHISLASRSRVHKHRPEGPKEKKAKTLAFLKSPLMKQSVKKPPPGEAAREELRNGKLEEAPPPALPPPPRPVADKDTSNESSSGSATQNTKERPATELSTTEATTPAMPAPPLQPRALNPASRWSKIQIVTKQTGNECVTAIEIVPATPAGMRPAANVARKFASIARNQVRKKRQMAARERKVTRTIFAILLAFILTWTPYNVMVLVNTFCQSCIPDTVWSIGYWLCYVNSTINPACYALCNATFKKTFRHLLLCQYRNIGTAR
In short: as §1

| Structure (SMILES) | Emax (M1 muscarinic receptor) [%] | M1 Activity (M1 muscarinic receptor) | Emax (M4 muscarinic receptor) [%] | M4 Activity (M4 muscarinic receptor) |
| --- | --- | --- | --- | --- |
| Cc1nsc(N2CC[C@H](CN3CCC4(CC3)CN(C(=O)N(C)C)c3ccccc34)C2)n1 [compound 83] | 25 to 100 | ++ (activity was measured to be from 2.0 μM to 10.0 μM) | 25 to 100 | +++ (activity was measured to be less than 2.0 μM) |
| CCc1nsc(N2CC[C@H](CN3CCC4(CC3)CN(C(=O)N(C)C)c3ccccc34)C2)n1 [compound 84] | 25 to 100 | +++ (activity was measured to be less than 2.0 μM) | 25 to 100 | +++ (activity was measured to be less than 2.0 μM) |
| Cc1nsc(N2CC[C@@H](CN3CCC4(CC3)CN(C(=O)N(C)C)c3ccccc34)C2)n1 [compound 85] | 25 to 100 | +++ (activity was measured to be less than 2.0 μM) | > 100 | +++ (activity was measured to be less than 2.0 μM) |
| CCc1nsc(N2CC[C@@H](CN3CCC4(CC3)CN(C(=O)N(C)C)c3ccccc34)C2)n1 [compound 86] | 25 to 100 | +++ (activity was measured to be less than 2.0 μM) | 25 to 100 | +++ (activity was measured to be less than 2.0 μM) |
| Cc1ncc(N2CC[C@H](CN3CCC4(CC3)CN(C(=O)N(C)C)c3ccccc34)C2)nc1C [compound 87] | < 25 | + (activity was measured to be greater than 10.0 μM) | 25 to 100 | +++ (activity was measured to be less than 2.0 μM) |
| Cc1ncc(N2CCC(N3CCC4(CC3)CN(C(=O)N(C)C)c3ccccc34)CC2)nc1C [compound 88] | 25 to 100 | ++ (activity was measured to be from 2.0 μM to 10.0 μM) | 25 to 100 | +++ (activity was measured to be less than 2.0 μM) |
| CN(C)C(=O)N1CC2(CCN(C3CCN(c4nncs4)CC3)CC2)c2ccccc21 [compound 89] | < 25 | ++ (activity was measured to be from 2.0 μM to 10.0 μM) | 25 to 100 | ++ (activity was measured to be from 2.0 μM to 10.0 μM) |
| CN(C)C(=O)N1CC2(CCN(C3CCN(c4nccs4)CC3)CC2)c2ccccc21 [compound 90] | 25 to 100 | ++ (activity was measured to be from 2.0 μM to 10.0 μM) | 25 to 100 | ++ (activity was measured to be from 2.0 μM to 10.0 μM) |
| Cc1csc(N2CCC(N3CCC4(CC3)CN(C(=O)N(C)C)c3ccccc34)CC2)n1 [compound 91] | 25 to 100 | ++ (activity was measured to be from 2.0 μM to 10.0 μM) | 25 to 100 | +++ (activity was measured to be less than 2.0 μM) |
| C#CCOC(=O)N1CCC(N2CCC3(CC2)CN(C(=O)N(C)C)c2ccccc23)CC1 [compound 92] | > 100 | +++ (activity was measured to be less than 2.0 μM) | > 100 | +++ (activity was measured to be less than 2.0 μM) |
| CCC#CCOC(=O)N1CCC(N2CCC3(CC2)CN(C(=O)N(C)C)c2ccccc23)CC1 [compound 93] | 25 to 100 | +++ (activity was measured to be less than 2.0 μM) | 25 to 100 | +++ (activity was measured to be less than 2.0 μM) |
| C#CCOC(=O)N1C2CCC1CC(N1CCC3(CC1)CN(C(=O)N(C)C)c1ccccc13)C2 (stereo not drawn) [compound 94] | 25 to 100 | +++ (activity was measured to be less than 2.0 μM) | 25 to 100 | +++ (activity was measured to be less than 2.0 μM) |
| CC#CCOC(=O)N1C2CCC1CC(N1CCC3(CC1)CN(C(=O)N(C)C)c1ccccc13)C2 (stereo not drawn) [compound 95] | 25 to 100 | +++ (activity was measured to be less than 2.0 μM) | 25 to 100 | +++ (activity was measured to be less than 2.0 μM) |
| CCOC(=O)N1CC[C@@H](CN2CCC3(CC2)CN(C(=O)N(C)C)c2ccccc23)C1 [compound 96] | 25 to 100 | +++ (activity was measured to be less than 2.0 μM) | > 100 | +++ (activity was measured to be less than 2.0 μM) |
| C#CCOC(=O)N1CC[C@@H](CN2CCC3(CC2)CN(C(=O)N(C)C)c2ccccc23)C1 [compound 97] | 25 to 100 | +++ (activity was measured to be less than 2.0 μM) | 25 to 100 | +++ (activity was measured to be less than 2.0 μM) |
| CC#CCOC(=O)N1CC[C@@H](CN2CCC3(CC2)CN(C(=O)N(C)C)c2ccccc23)C1 [compound 98] | 25 to 100 | +++ (activity was measured to be less than 2.0 μM) | 25 to 100 | +++ (activity was measured to be less than 2.0 μM) |
| CCC#CCOC(=O)N1CC[C@@H](CN2CCC3(CC2)CN(C(=O)N(C)C)c2ccccc23)C1 [compound 99] | 25 to 100 | +++ (activity was measured to be less than 2.0 μM) | > 100 | +++ (activity was measured to be less than 2.0 μM) |
| C#CCOC(=O)N1CC[C@H](CN2CCC3(CC2)CN(C(=O)N(C)C)c2ccccc23)C1 [compound 100] | 25 to 100 | +++ (activity was measured to be less than 2.0 μM) | 25 to 100 | +++ (activity was measured to be less than 2.0 μM) |
| CC#CCOC(=O)N1CC[C@H](CN2CCC3(CC2)CN(C(=O)N(C)C)c2ccccc23)C1 [compound 101] | 25 to 100 | +++ (activity was measured to be less than 2.0 μM) | > 100 | +++ (activity was measured to be less than 2.0 μM) |
| CCC#CCOC(=O)N1CC[C@H](CN2CCC3(CC2)CN(C(=O)N(C)C)c2ccccc23)C1 [compound 102] | 25 to 100 | +++ (activity was measured to be less than 2.0 μM) | > 100 | +++ (activity was measured to be less than 2.0 μM) |
| C#CCOC(=O)N1CCCC(N2CCC3(CC2)CN(C(=O)N(C)C)c2ccccc23)CC1 (stereo not drawn) [compound 104] | > 100 | +++ (activity was measured to be less than 2.0 μM) | > 100 | +++ (activity was measured to be less than 2.0 μM) |
| CC#CCOC(=O)N1CCCC(N2CCC3(CC2)CN(C(=O)N(C)C)c2ccccc23)CC1 (stereo not drawn) [compound 105] | > 100 | +++ (activity was measured to be less than 2.0 μM) | > 100 | +++ (activity was measured to be less than 2.0 μM) |
| CCC#CCOC(=O)N1CCCC(N2CCC3(CC2)CN(C(=O)N(C)C)c2ccccc23)CC1 (stereo not drawn) [compound 106] | 25 to 100 | +++ (activity was measured to be less than 2.0 μM) | 25 to 100 | +++ (activity was measured to be less than 2.0 μM) |
| CCOC(=O)N1CCCC(N2CCC3(CC2)CN(C(=O)N(C)C)c2ccccc23)CCC1 [compound 107] | > 100 | +++ (activity was measured to be less than 2.0 μM) | > 100 | +++ (activity was measured to be less than 2.0 μM) |
